Measured values taken from patent US7868006B2, “Heterocyclic substituted piperazines with CXCR3 antagonist activity” (Schering Corporation, priority 2005, dated 2011).

Biological target: T1, human CXCR3 (N-delta 4) (Homo sapiens, UniProt P49682)
T1 construct: CD8 leader (N); Flag tag (N); expressed in transfected cells; host or cells: mouse pro-B Ba/F3 cells, stably transfected with pME18Sneo-hCXCR3 (N-delta 4); membrane preparation
T1 sequence (P49682 5-368 limits assumed): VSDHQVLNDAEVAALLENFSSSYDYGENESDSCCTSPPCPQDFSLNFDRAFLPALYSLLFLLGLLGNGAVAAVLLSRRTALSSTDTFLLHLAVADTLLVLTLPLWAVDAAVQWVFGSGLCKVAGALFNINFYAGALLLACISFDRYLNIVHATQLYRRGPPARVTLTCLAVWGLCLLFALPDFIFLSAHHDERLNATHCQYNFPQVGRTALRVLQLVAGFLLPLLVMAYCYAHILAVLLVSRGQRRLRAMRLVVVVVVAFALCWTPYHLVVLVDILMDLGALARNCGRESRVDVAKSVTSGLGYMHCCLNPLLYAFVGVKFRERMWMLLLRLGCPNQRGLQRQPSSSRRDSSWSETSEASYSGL
Assay: Human CXCR3 (N-delta 4) Scintillation Proximity Assay (SPA), [125I] IP-10 binding
Settings: IC50 rating; Ba/F3-hCXCR3 (N-delta 4) membranes, 25 pM [125I] IP-10; read-out: IC50
Text: The inventive compounds can readily be evaluated to determine activity at The CXCR3 receptors by known methods, such as, for example, Development of Human CXCR3 (N-delta 4) Binding Assay.
Cloning and Expression of Human CXCR3 (N-delta 4):
The DNA encoding human CXCR3 was cloned by PCR using human genomic DNA (Promega, Madison, Wis.) as a template. The PCR primers were designed based on the published sequence of human orphan receptor GPR9 (1) with incorporated restriction sites, a Kozak consensus sequence, CD8 leader and Flag tag. The PCR product was subcloned into the mammalian expression vector pME18Sneo, a derivative of the SR-alpha expression vector (designated as pME18Sneo-hCXCR3 (N-delta 4).
IL-3-dependent mouse pro-B cells Ba/F3 were transfected by electroporation in 0.4 ml Dulbecco's PBS containing 4×10^6 cells with 20 μg of pME18Sneo-hCXCR3 (N-delta 4) plasmid DNA. Cells were pulsed at 400 Volts, 100 OHMs, 960 μFd. The transfected cells were under selection with 1 mg/ml G418 (Life Technologies, Gaithersburg, Md.). G418-resistant Ba/F3 clones were screened for CXCR3 expression by specific binding of [^125I] IP-10 (NEN Life Science Products, Boston, Mass.).
Preparation of Ba/F3-hCXCR3 (N-delta 4) Membranes:
Ba/F3 cells expressing human CXCR3 (N-delta 4) were pelleted and resuspended in the lysis buffer containing 10 mM HEPES, pH 7.5 and Complete® protease inhibitors (1 tablet per 100 ml) (Boehringer Mannheim, Indianapolis, Ind.) at a cell density of 20×10^6 cells per ml. After 5 minutes incubation on ice, cells were transferred to 4639 cell disruption bomb (Parr Instrument, Moline, Ill.) and applied with 1,500 psi of nitrogen for 30 minutes on ice. Large cellular debris was removed by centrifugation at 1,000×g. Cell membrane in the supernatant was sedimented at 100,000×g. The membrane was resuspended in the lysis buffer supplemented with 10% sucrose and stored at −80° C. Total protein concentration of the membrane was determined by BCA method from Pierce (Rockford, Ill.).
Human CXCR3 (N-delta 4) Scintillation Proximity Assay (SPA):
For each assay point, 2 μg of membrane was preincubated for 1 hr with 300 μg wheat germ agglutinin (WGA) coated SPA beads (Amersham, Arlington Heights, Ill.) in the binding buffer (50 mM HEPES, 1 mM CaCl2, 5 mM MgCl2, 125 mM NaCl, 0.002% NaN3, 1.0% BSA) at room temperature. The beads were spun down, washed once, resuspended in the binding buffer and transferred to a 96-well Isoplate (Wallac, Gaithersburg, Md.). 25 pM of [^125I] IP-10 with tested compounds in a series of titration were added to start the reaction. After 3 hr reaction at room temperature, the amount of [^125I] IP-10 bound to the SPA beads was determined with a Wallac 1450 Microbeta counter.
The Ki values for the various example compounds of the present invention are given in the afore-mentioned Table 1. From these values, it would be apparent to the skilled artisan that the compounds of the invention have excellent utility CXCR3 antagonists.

| IC50 | SMILES |
| --- | --- |
| < 0.025 µM | CCNc1nnc(-c2cnc(N3C[C@H](CC)N(C4CCN(C(=O)c5ccc(Cl)nc5N)CC4)C[C@H]3C)c(C(F)(F)F)n2)o1 [Compound 98] |
| < 0.025 µM | CCNc1nnc(-c2cnc(N3CCN(C4CCN(C(=O)c5ccc(Cl)nc5N)CC4)[C@@H](CC)C3)c(C(F)(F)F)n2)o1 [Compound 103] |
| < 0.025 µM | CC[C@H]1CN(c2ncc(-c3nc[nH]n3)nc2C)[C@H](C)CN1C1CCN(Cc2ccc(F)cc2)CC1 [Compound 106] |
| < 0.025 µM | CC[C@H]1CN(c2ncc(-c3ncc[nH]3)nc2C)CCN1C1CCN(Cc2ccc(Cl)cc2)CC1 [Compound 107] |
| < 0.025 µM | CC[C@H]1CN(c2ncc(-c3ncc[nH]3)nc2C)CCN1C1CCN(Cc2ccc(F)c(F)c2)CC1 [Compound 108] |
| < 0.025 µM | CC[C@H]1CN(c2ncc(-c3nc[nH]n3)nc2C)[C@H](C)CN1C1CCN(Cc2ccc(Cl)cc2)CC1 [Compound 112] |
| < 0.025 µM | CC[C@H]1CN(c2ncc(-c3nc[nH]n3)nc2C)CCN1C1CCN(C(=O)c2ccc(F)c(F)c2)CC1 [Compound 113] |
| < 0.025 µM | CC[C@H]1CN(c2ncc(C3=NNCN3)nc2C)[C@H](C)CN1C1CCN(Cc2ccc(F)c(F)c2)CC1 [Compound 114] |
| < 0.025 µM | CCNc1nnc(-c2cnc(N3CCN(C4CCN(Cc5ccc(C)cc5)CC4)[C@@H](CC)C3)c(C)n2)o1 [Compound 115] |
| < 0.025 µM | CC[C@H]1CN(c2ncc(C3=NCCN3)nc2C)[C@H](C)CN1C1CCN(C(=O)c2ccc(Cl)cc2)CC1 [Compound 116] |
| 0.025 to 0.1 µM | CC[C@H]1CN(c2ncc(-c3nnc[nH]3)nc2C)[C@H](C)CN1C1CCN(C(=O)c2ccc(Cl)cc2)CC1 [Compound 118] |
| < 0.025 µM | CC[C@H]1CN(c2ncc(-c3ncc[nH]3)nc2C)CCN1C1CCN(C(=O)c2ccc(Cl)nc2N)CC1 [Compound 119] |
| < 0.025 µM | CC[C@H]1CN(c2ncc(-c3nnc(N)[nH]3)nc2C)CCN1C1CCN(C(=O)c2ccc(Cl)cc2)CC1 [Compound 120] |
| 0.025 to 0.1 µM | CC[C@H]1CN(c2ncc(-c3nc[nH]n3)nc2C)[C@H](C)CN1C1CCN(C(=O)c2ccc(F)c(F)c2)CC1 [Compound 122] |
| < 0.025 µM | CC[C@H]1CN(c2ncc(-c3ncc[nH]3)nc2C)CCN1C1CCN(C(=O)c2ccc(Cl)c(F)c2)CC1 [Compound 124] |
| < 0.025 µM | CCNc1nnc(-c2cnc(N3C[C@H](CC)N(C4CCN(Cc5ccc(F)cc5)CC4)C[C@H]3C)c(C)n2)o1 [Compound 128] |
| < 0.025 µM | CCc1nnc(-c2cnc(N3CCN(C4CCN(C(=O)c5ccc(Cl)cc5)CC4)[C@@H](CC)C3)c(C)n2)[nH]1 [Compound 129] |
| < 0.025 µM | CC[C@H]1CN(c2ncc(-c3ncc[nH]3)nc2C)[C@H](C)CN1C1CCN(C(=O)c2ccc(Cl)nc2N)CC1 [Compound 130] |
| < 0.025 µM | CC[C@H]1CN(c2ncc(-c3nc[nH]n3)nc2C)[C@H](C)CN1C1CCN(C(=O)c2ccc(Cl)nc2N)CC1 [Compound 131] |
| < 0.025 µM | CC[C@H]1CN(c2ncc(-c3nc[nH]n3)nc2C)[C@H](C)CN1C1CCN(C(=O)c2ccc(Cl)c(F)c2)CC1 [Compound 134] |
| < 0.025 µM | CCNc1nnc(-c2cnc(N3C[C@H](CC)N(C4CCN(Cc5ccc(O)cc5)CC4)C[C@H]3C)c(C)n2)o1 [Compound 136] |
| 0.025 to 0.1 µM | CC[C@H]1CN(c2ncc(-c3nnc(C)o3)nc2F)CCN1C1CCN(C(=O)c2ccc(Cl)nc2N)CC1 [Compound 137] |
| < 0.025 µM | CCNc1nnc(-c2cnc(N3CCN(C4CCN(C(=O)c5ccc(Cl)cc5)CC4)[C@@H](CC)C3)c(C)n2)o1 [Compound 142] |
| < 0.025 µM | CC[C@H]1CN(c2ncc(-c3nc4ccccc4[nH]3)nc2C)CCN1C1CCN(C(=O)c2ccc(Cl)cc2)CC1 [Compound 146] |
| 0.025 to 0.1 µM | CC[C@H]1CN(c2ncc(-c3nc[nH]n3)nc2C)CCN1C1CCN(C(=O)c2ccc(C(F)(F)F)nc2N)CC1 [Compound 147] |

Second part, the compound before the results:

| SMILES | IC50 |
| --- | --- |
| CCNc1nnc(-c2cnc(N3C[C@H](CC)N(C4CCN(C(=O)c5ccc(Cl)nc5N)CC4)C[C@H]3C)c(Cl)n2)o1 [Compound 100] | < 0.025 µM |
| CCNc1nnc(-c2cnc(N3C[C@H](CC)N(C4CCN(C(=O)c5ccc(Cl)cc5)CC4)C[C@H]3C)c(Cl)n2)o1 [Compound 101] | < 0.025 µM |
| CC[C@H]1CN(c2ncc(-c3nnc(N)o3)nc2C)[C@H](C)CN1C1CCN(C(=O)c2ccc(Cl)cc2)CC1 [Compound 102] | < 0.025 µM |
| CC[C@H]1CN(c2ncc(-c3ncc[nH]3)nc2C)CCN1C1CCN(Cc2ccc(F)cc2)CC1 [Compound 104] | < 0.025 µM |
| CC[C@H]1CN(c2ncc(-c3nnc[nH]3)nc2C)CCN1C1CCN(Cc2ccc(F)cc2)CC1 [Compound 105] | < 0.025 µM |
| CC[C@H]1CN(c2ncc(-c3nnc[nH]3)nc2C)CCN1C1CCN(Cc2ccc(F)c(F)c2)CC1 [Compound 109] | < 0.025 µM |
| CC[C@H]1CN(c2ncc(-c3nc[nH]n3)nc2C)CCN1C1CCN(C(=O)c2ccc(C)c(F)c2)CC1 [Compound 110] | < 0.025 µM |
| CC[C@H]1CN(c2ncc(-c3ncc[nH]3)nc2C)CCN1C1CCN(C(=O)c2ccc(Cl)cc2)CC1 [Compound 111] | < 0.025 µM |
| CCNc1nnc(-c2cnc(N3CCN(C4CCN(Cc5ccc(F)cc5)CC4)[C@@H](CC)C3)c(C)n2)o1 [Compound 117] | < 0.025 µM |
| CC[C@H]1CN(c2ncc(-c3nnc(N)o3)nc2C)[C@H](C)CN1C1CCN(Cc2ccc(Cl)cc2)CC1 [Compound 123] | < 0.025 µM |
| CC[C@H]1CN(c2ncc(-c3nc[nH]n3)nc2C)CCN1C1CCN(C(=O)c2ccc(Cl)c(F)c2)CC1 [Compound 125] | < 0.025 µM |
| CCNc1nnc(-c2cnc(N3CCN(C4CCN(C(=O)c5ccc(C)cc5)CC4)[C@@H](CC)C3)c(C)n2)o1 [Compound 126] | < 0.025 µM |
| CCNc1nnc(-c2cnc(N3CCN(C4CCN(Cc5ccc(C)c(F)c5)CC4)[C@@H](CC)C3)c(C)n2)o1 [Compound 127] | < 0.025 µM |
| CCNc1nnc(-c2cnc(N3CCN(C4CCN(Cc5ccc(Cl)cc5)CC4)[C@@H](CC)C3)c(C)n2)o1 [Compound 132] | < 0.025 µM |
| CC[C@H]1CN(c2ncc(-c3nc[nH]n3)nc2C)[C@H](C)CN1C1CCN(C(CO)c2ccc(Cl)cc2)CC1 (stereo partly drawn) [Compound 133] | < 0.025 µM |
| CC[C@H]1CN(c2ncc(-c3ncc[nH]3)nc2C)CCN1C1CCN(Cc2ccc(OC(F)(F)F)cc2)CC1 [Compound 135] | < 0.025 µM |
| CC[C@H]1CN(c2ncc(-c3nc[nH]n3)nc2C)CCN1C1CCN(C(=O)c2cc(F)c(F)cc2Cl)CC1 [Compound 138] | 0.025 to 0.1 µM |
| CCNc1nnc(-c2cnc(N3CCN(C4CCN(C(=O)c5ccc(CC)cc5)CC4)[C@@H](CC)C3)c(C)n2)o1 [Compound 139] | 0.025 to 0.1 µM |
| CC[C@H]1CN(c2ncc(-c3nnc(C4CC4)[nH]3)nc2C)CCN1C1CCN(C(=O)c2ccc(Cl)cc2)CC1 [Compound 140] | < 0.025 µM |
| CC[C@H]1CN(c2ncc(-c3nnc(C(C)C)[nH]3)nc2C)CCN1C1CCN(C(=O)c2ccc(Cl)cc2)CC1 [Compound 141] | 0.025 to 0.1 µM |
| CC[C@H]1CN(c2ncc(-c3nnc(NC)o3)nc2C)[C@H](C)CN1C1CCN(C(=O)c2ccc(Cl)cc2)CC1 [Compound 143] | < 0.025 µM |
| CCNc1nnc(-c2cnc(N3CCN(C4CCN(C(=O)c5ccc(F)c(F)c5)CC4)[C@@H](CC)C3)c(C)n2)o1 [Compound 144] | < 0.025 µM |
| CCNc1nnc(-c2cnc(N3C[C@H](CC)N(C4CCN(C(=O)c5ccc(O)cc5)CC4)C[C@H]3C)c(C)n2)o1 [Compound 145] | 0.025 to 0.1 µM |
